Source: the NIST ThermoML archive (doi:10.1016/j.jct.2017.09.012)
± gives the expanded uncertainty stated by the source.

Test: osmotic coefficient (dimensionless); mn = molality of the nth substance listed, in mol/kg
Settings: 101 kPa, Liquid, isopiestic method

`O=S(=O)([O-])[O-].[Zn+2]` [zinc sulfate] + O gave an osmotic coefficient (288.15 K, m1 = 3.567) of 1.09 ± 0.03, an osmotic coefficient (288.15 K, m1 = 3.787) of 1.19 ± 0.033 and an osmotic coefficient (288.15 K, m1 = 3.997) of 1.29 ± 0.03. It also gave an osmotic coefficient (298.15 K, m1 = 3.223) of 0.935 ± 0.009, an osmotic coefficient (298.15 K, m1 = 3.836) of 1.16 ± 0.013 and an osmotic coefficient (308.15 K, m1 = 3.614) of 1.019 ± 0.005. The osmotic coefficient (308.15 K, m1 = 3.962) was 1.144 ± 0.009, the osmotic coefficient (308.15 K, m1 = 4.295) was 1.27 ± 0.015 and the osmotic coefficient (313.15 K, m1 = 4.014) was 1.133 ± 0.007. For the same compound, the osmotic coefficient (313.15 K, m1 = 4.25) was 1.217 ± 0.009 and the osmotic coefficient (313.15 K, m1 = 4.47) was 1.302 ± 0.013.
